Article PMC11892739, “Site-specific molecular glues for the 14-3-3/Tau pS214 protein–protein interaction via reversible covalent imine tethering” (RSC Medicinal Chemistry, 2025)

Molecular target: T1, 14-3-3ζ/Tau pS2 peptide interaction (Homo sapiens, UniProt P63104)
T1 construct: made in house; host or cells: NiCo21 (DE3) E. coli
T1 sequence (P63104 1-245): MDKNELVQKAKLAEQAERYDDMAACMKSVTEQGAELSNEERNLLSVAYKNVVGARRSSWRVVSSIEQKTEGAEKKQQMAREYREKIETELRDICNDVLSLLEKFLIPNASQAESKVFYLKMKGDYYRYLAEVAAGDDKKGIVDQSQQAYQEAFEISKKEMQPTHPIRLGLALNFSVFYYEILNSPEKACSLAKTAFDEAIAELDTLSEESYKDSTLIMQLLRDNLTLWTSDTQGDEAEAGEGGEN
Assay: Fluorescence anisotropy 14-3-3ζ titration in the presence of 250 μM compound and Tau pS2 peptide
Format: binding
Settings: 250 μM compound; apparent KD compared to internal DMSO reference
Procedure: On the other hand, the PPI stabilizing potency of series 1 compounds was highly dependent on the position and chemical property of the substituent. […] The compound screen for these compounds was further complemented by 14-3-3ζ titration assays in the presence of a constant concentration of compound (250 μM) and Tau pS2 peptide (10 nM) (Fig. 3c, ESI ^† Fig. S6).
This statement is strengthened by the diminished stabilizing activity when shifting the more polar chloro substituent from the para (14) to the ortho (5) to the meta position (8), respectively. […]
chromatography (HisTrap high performance cartridges, Cytiva). Typically two 5 mL columns were used for a 2 L culture in which the lysate was loaded on the column, washed with 10 CV wash buffer (50 mM Hepes, pH 8.0, 300 mM NaCl, 25 mM imidazole, 2 mM βME), and eluted with several fractions (2-4 CV) of elution buffer (50 mM Hepes, pH 8.0, 300 mM NaCl, 250 mM imidazole, 2 mM βME). Fractions containing the 14-3-3 protein were combined and dialyzed into 25 mM HEPES pH 8.0, 200 mM NaCl, 10 mM MgCl2, 2 mM βME, followed by dialysis into 25 mM HEPES, 100 mM NaCl, 10 mM MgCl2, 500 μM TCEP (adjusted to pH 8.0). Dialyzed protein was concentrated to ∼40 mg/mL, analyzed by Q -Tof LC/MS, and aliquots were flash -frozen for storage at −80 °C. For 14 -3-3σ∆c, 1 mg TEV per 100 mg purified protein was added to the dialysis to remove the purification tag. The cleaved sample was then again loaded on a 10 mL Ni-NTA column to separate the cleaved product from the expression tag and residual uncleaved protein. The flowthrough was loade d on a Superdex 75 pg 16/60 size exclusion column (GE Life Sciences) using 25 mM HEPES, 100 mM NaCl, 10 mM MgCl2, 500 μM TCEP (adjusted to pH = 8.0) as running buffer. Fractions containing the 14 -3-3 protein were pooled and concentrated to ∼60 mg/mL, analyzed Q -Tof LC/MS, and aliquots were flash -frozen for storage at −80°C.
Fluorescence Anisotropy – compound titration
Compound titration assays were performed by titrating compounds (in 1% DMSO, starting at 500 μM) in a 2-fold dilution series to preformed complex of fluorescein -labeled Tau pS2 (10 nM) and 14 -3-3ζ (100 nM) (which represents approximately 20% bound Tau pS2 peptide to 14 -3-3ζ to allow further complex formation by addition of fragments 1) in FA buffer (10 mM HEPES pH 7.4, 150 mM NaCl, 50 µM TCEP, 0.1% (v/v) Tween20, 0.1% (w/v) BSA). Dilution series were made in polystyrene low -volume 384 -well plates (Corning #4514, Black Round Bottom). Measurements were performed directly after plate preparation, using a Tecan SPARK plate reader at room temperature ( λex: 485±20 nm; λem: 535±25 nm; mirror: automatic; flashes: 30; settle time: 1 ms; gain: optimal; Z -position: calculated from well). Wells containing only fluorescein labelled peptide were used to set as G -factor calibrated from these wells. All data were analyzed using GraphPad Prism (10.0.1) and fitted with a four -parameter logistic model (4PL) to determine binding affinities (dissociation constant, KD). All data shown is background corrected for the signal without 14 -3-3ζ and the mean and standard deviation of technical duplicate is plotted, assay performed in a scientific duplicate for hit compounds.
Fluorescence Anisotropy – 14-3-3 titrations in the presence of compound To characterize the affinity of the Tau peptides for 14-3-3 in the presence of compound, 14-3-3ζ or γ was titrated in a 2-fold dilution series starting at 400 (for the 14-3-3ζ titrations to Tau pS2) or 800 (for the 14-3-3γ titrations to Tau pS214 or pS324) µM. 14-3-3 was added to 10 nM of fluorescein-labeled peptide (Tau pS2, Tau pS214 or Tau pS324) in the presence of 250 µM compound (1% DMSO). The assays were performed in a similar way as described above. Data shown is the average and standard deviation of a technical duplicate, top plateau corrected where needed, assay performed in a scientific duplicate.
Fluorescence Anisotropy – peptide screen […]

SF250μM (stabilization factor) | SMILES
33 | O=Cc1ccc(-n2ccnc2-c2ccc(F)cc2)cc1Br [Compound 13]
34 | N#Cc1ccc(-c2nccn2-c2ccc(C=O)c(Br)c2)cc1 [Compound 22]
8.9 | O=Cc1ccc(-n2ccnc2-c2ccc(Cl)cc2)cc1Br [Compound 14]
23 | O=Cc1ccc(-n2ccnc2-c2ccccc2)cc1Br [Compound 1]

More lines, now with the values behind:

SMILES | SF250μM (stabilization factor)
O=Cc1ccc(-n2ccnc2-c2ccc(I)cc2)cc1Br [Compound 15] | 3.1
CCc1ccc(-c2nccn2-c2ccc(C=O)c(Br)c2)cc1 [Compound 18] | 37
O=Cc1ccc(-n2ccnc2-c2ccc(C(F)(F)F)cc2)cc1Br [Compound 20] | 13
Cc1cccc(-c2nccn2-c2ccc(C=O)c(Br)c2)c1 [Compound 6] | 10
O=Cc1ccc(-n2ccnc2-c2ccc(OC(F)(F)F)cc2)cc1Br [Compound 21] | 11
Cc1ccc(-c2nccn2-c2ccc(C=O)c(Br)c2)cc1 [Compound 11] | 29

Same assay, conditions: screening hits

stabilization of the 14-3-3ζ/Tau pS2 peptide complex [fold] | SMILES
23 | O=Cc1ccc(-n2ccnc2-c2ccccc2)cc1Br [Compound 1]
